Reference: US11965039B2, “Compstatin analogues and their medical uses” (priority 2018, dated 2024)
Read-outs that look alike come from different tables or passages of the source. Starred links: 1 amine or outer side, 2 acyl side, 3 side chain; linkers in the order of their positions; H or OH if unused. Positions of bridges follow the written chain, without caps; N, C: chain ends. Non-standard residues stand in square brackets, D forms with d. Residues, ends and D or L forms follow the SMILES beside them. Groups on a side chain read outwards from the residue. *: point of attachment. Trp(1-Me) = Cn1cc(C[C@H](N)C(=O)O)c2ccccc21; C18 diacid = O=C(O)CCCCCCCCCCCCCCCCC(=O)*; C16 diacid = O=C(O)CCCCCCCCCCCCCCC(=O)*; γGlu = O=C(O)[C@H](CCC(=O)[*:2])N[*:1]; AEEA = NCCOCCOCC(=O)O; Aoc = NCCCCCCCC(=O)O; Sar = CNCC(=O)O

System: classical complement pathway
Assay: In vitro haemolysis assay (inhibition of classical complement pathway)
Assay type: cell-based, human
Method: The in vitro effect of the compounds of the present invention was assessed by measuring their inhibitory effect of the classical complement pathway in a haemolysis assay. Briefly, compounds of the present invention and reference compounds were dissolved in DMSO and diluted in Tris/Casein Assay Buffer (10 mM Tris, 145 mM NaCl, 0.5 mM MgCl2, 0.15 mM CaCl2), and 0.1% W/V Casein, adjusted to pH 7.4) as 9-point serial dilutions in a 96 well plate. Sensitized sheep red blood cells (RBC) coated with rabbit anti-sheep erythrocyte antiserum (Complement Technology, Inc., TX, USA) were washed in Tris/Casein Assay Buffer. […] from each well of diluted compound was added to a 96-well plate containing 50 μL diluted human serum (Complement Technology, Inc., TX, USA) and incubated for 15 minutes at room temperature. The serum dilution factor was optimized for every serum batch to obtain 70-90% of maximal haemolysis using the protocol. Then 50 μL sensitized sheep red blood cells were added to all wells (10^7 per well). After 30 minutes of incubation at 37 QC with gentle agitation, the reaction was stopped by addition of 50 μL Tris STOP Buffer per well (10 mM EDTA, 10 mM Tris, 145 mM NaCl adjusted to pH 7.4). The RBCs were then removed by centrifugation and the resulting supernatant measured for hemolysis by absorbance at 405 nm. The response was normalized relative to a positive and negative control (vehicle) to calculate the IC50 from the concentration response curve using the 4-parameter logistic (4PL) nonlinear model for curve fitting.

[1] = human serum, sensitized sheep red blood cells, Table 3, given as upper bounds, read-out: IC50, inhibition of hemolysis
[2] = human serum, sensitized sheep red blood cells, Table 4, valine 3 vs isoleucine 3 pairs, read-out: CP hemolysis IC50

Molecule	IC50 [1]	IC50 [2]	IC50 (Table 5, different residues at position 3 of Ac-IC(1)XWQDWGEHRC(1)T-NH2, read-out: IC50, CP hemolysis)
CC[C@H](C)[C@@H]1NC(=O)[C@@H](NC(=O)[C@H](Cc2ccccc2)NC(=O)[C@H](CCC(=O)O)NC(=O)[C@H](CO)NC(C)=O)CSSC[C@@H](C(=O)N[C@H](C(=O)N[C@@H](CCC(=O)O)C(=O)NCC(=O)N[C@@H](CCC(=O)O)C(=O)NCCCCCCCC(=O)N[C@@H](CCC(=O)O)C(=O)N[C@@H](CCCCNC(=O)CC[C@H](NC(=O)CNC(=O)CC[C@H](NC(=O)CCCCCCCCCCCCCCCCC(=O)O)C(=O)O)C(=O)O)C(N)=O)[C@@H](C)O)NC(=O)[C@H](CCCNC(=N)N)NC(=O)[C@H](Cc2c[nH]cn2)NC(=O)[C@H](CCC(=O)O)NC(=O)CNC(=O)[C@H](Cc2c[nH]c3ccccc23)NC(=O)[C@H](CC(=O)O)NC(=O)[C@H](CCC(N)=O)NC(=O)[C@H](Cc2cn(C)c3ccccc23)NC1=O [Compound 137] (Ac-SEFCI[Trp(1-Me)]QDWGEHRCTEGE[Aoc]EK([γGlu-Gly-γGlu-C18 diacid])-NH2; disulfide 4-14)	< 100 nM		
CC[C@H](C)[C@H](NC(=O)[C@H](C)NC(=O)[C@H](CO)NC(=O)CNC(=O)[C@H](CCC(=O)O)NC(C)=O)C(=O)N[C@H]1CSSC[C@@H](C(=O)N(C)CC(=O)N[C@@H](CCC(=O)O)C(N)=O)NC(=O)[C@H](CCCNC(=N)N)NC(=O)[C@H](Cc2c[nH]cn2)NC(=O)[C@H](CCC(=O)O)NC(=O)CNC(=O)[C@H](Cc2c[nH]c3ccccc23)NC(=O)[C@H](CC(=O)O)NC(=O)[C@H](CCC(N)=O)NC(=O)[C@H](Cc2c[nH]c3ccccc23)NC(=O)[C@H](C(C)C)NC1=O [H, reference compound] (Ac-EGSAICVWQDWGEHRC[Sar]E-NH2; disulfide 6-16)		330 nM	
CC[C@H](C)[C@H](NC(C)=O)C(=O)N[C@H]1CSSC[C@@H](C(=O)N[C@H](C(=O)N[C@@H](CCC(=O)O)C(=O)NCC(=O)N[C@@H](CCC(=O)O)C(=O)N[C@@H](CCCCNC(=O)COCCOCCNC(=O)COCCOCCNC(=O)CC[C@H](NC(=O)CCCCCCCCCCCCCCC(=O)O)C(=O)O)C(N)=O)[C@@H](C)O)NC(=O)[C@H](CCCNC(=N)N)NC(=O)[C@H](Cc2c[nH]cn2)NC(=O)[C@H](CCC(=O)O)NC(=O)CNC(=O)[C@H](Cc2c[nH]c3ccccc23)NC(=O)[C@H](CC(=O)O)NC(=O)[C@H](CCC(N)=O)NC(=O)[C@H](Cc2c[nH]c3ccccc23)NC(=O)[C@H]([C@@H](C)CC)NC1=O [Compound 94] (Ac-ICIWQDWGEHRCTEGEK([AEEA-AEEA-γGlu-C16 diacid])-NH2; disulfide 2-12)	< 500 nM		
CC[C@H](C)[C@@H]1NC(=O)[C@@H](NC(=O)[C@H](Cc2ccc(O)cc2)NC(=O)[C@H](C)NC(=O)[C@H](CO)NC(=O)CNC(=O)[C@H](CCC(=O)O)NC(C)=O)CSSC[C@@H](C(=O)N[C@H](C(=O)N[C@@H](CCC(=O)O)C(N)=O)[C@@H](C)O)NC(=O)[C@H](CCCNC(=N)N)NC(=O)[C@H](Cc2c[nH]cn2)NC(=O)[C@H](CCC(=O)O)NC(=O)CNC(=O)[C@H](Cc2c[nH]c3ccccc23)NC(=O)[C@H](CC(=O)O)NC(=O)[C@H](CCC(N)=O)NC(=O)[C@H](Cc2cn(C)c3ccccc23)NC1=O [Compound 59] (Ac-EGSAYCI[Trp(1-Me)]QDWGEHRCTE-NH2; disulfide 6-16)	< 100 nM		
CC[C@H](C)[C@H](NC(=O)[C@H](C)NC(=O)[C@H](CO)NC(=O)[C@H](CO)NC(=O)[C@H](CCC(=O)O)NC(C)=O)C(=O)N[C@H]1CSSC[C@@H](C(=O)N[C@H](C(N)=O)[C@@H](C)O)NC(=O)[C@H](CCCNC(=N)N)NC(=O)[C@H](Cc2c[nH]cn2)NC(=O)[C@H](C)NC(=O)CNC(=O)[C@H](Cc2c[nH]c3ccccc23)NC(=O)[C@H](CC(=O)O)NC(=O)[C@H](CCC(N)=O)NC(=O)[C@H](Cc2c[nH]c3ccccc23)NC(=O)[C@H]([C@@H](C)CC)NC1=O [Compound 46] (Ac-ESSAICIWQDWGAHRCT-NH2; disulfide 6-16)	< 100 nM		
Ac-IC(1)XWQDWGEHRC(1)T-NH2 [Beta-Homo-lsoleucine, reference compound]			> 10000 nM
CC[C@H](C)[C@@H]1NC(=O)[C@@H](NC(=O)[C@H](Cc2ccc(O)cc2)NC(=O)[C@H](CCC(=O)O)NC(=O)[C@H](CO)NC(C)=O)CSSC[C@@H](C(=O)N(C)CC(=O)N[C@@H](CCC(=O)O)C(=O)NCC(=O)N[C@@H](C)C(=O)N[C@@H](CCCCNC(=O)CC[C@H](NC(=O)CNC(=O)CC[C@H](NC(=O)CCCCCCCCCCCCCCCCC(=O)O)C(=O)O)C(=O)O)C(N)=O)NC(=O)[C@H](CCCNC(=N)N)NC(=O)[C@H](Cc2c[nH]cn2)NC(=O)[C@H](CCC(=O)O)NC(=O)CNC(=O)[C@H](Cc2c[nH]c3ccccc23)NC(=O)[C@H](CC(=O)O)NC(=O)[C@H](CCC(N)=O)NC(=O)[C@H](Cc2cn(C)c3ccccc23)NC1=O [Compound 112] (Ac-SEYCI[Trp(1-Me)]QDWGEHRC[Sar]EGAK([γGlu-Gly-γGlu-C18 diacid])-NH2; disulfide 4-14)	< 500 nM		
CC[C@H](C)[C@@H]1NC(=O)[C@@H](NC(=O)[C@H](Cc2ccc(O)cc2)NC(=O)[C@H](C)NC(=O)[C@H](CO)NC(=O)CNC(=O)[C@H](CCC(=O)O)NC(C)=O)CSSC[C@@H](C(=O)N(C)CC(=O)N[C@@H](CCC(=O)O)C(N)=O)NC(=O)[C@H](CCCNC(=N)N)NC(=O)[C@H](Cc2c[nH]cn2)NC(=O)[C@H](CCC(=O)O)NC(=O)CNC(=O)[C@H](Cc2c[nH]c3ccccc23)NC(=O)[C@H](CCC(=O)O)NC(=O)[C@H](CCC(N)=O)NC(=O)[C@H](Cc2cn(C)c3ccccc23)NC1=O [Compound 70] (Ac-EGSAYCI[Trp(1-Me)]QEWGEHRC[Sar]E-NH2; disulfide 6-16)	< 100 nM		
CC[C@H](C)[C@H](NC(C)=O)C(=O)N[C@H]1CSSC[C@@H](C(=O)N[C@H](C(N)=O)[C@@H](C)O)NC(=O)[C@H](CO)NC(=O)[C@H](Cc2c[nH]cn2)NC(=O)[C@H](CCC(=O)O)NC(=O)CNC(=O)[C@H](Cc2c[nH]c3ccccc23)NC(=O)[C@H](CC(=O)O)NC(=O)[C@H](CCC(N)=O)NC(=O)[C@H](Cc2c[nH]c3ccccc23)NC(=O)[C@H]([C@@H](C)CC)NC1=O [Compound 20] (Ac-ICIWQDWGEHSCT-NH2; disulfide 2-12)	< 100 nM	59 nM	
CC[C@H](C)[C@@H]1NC(=O)[C@@H](NC(=O)[C@H](Cc2ccccc2)NC(=O)[C@H](CCC(=O)O)NC(=O)[C@H](CO)NC(C)=O)CSSC[C@@H](C(=O)N[C@H](C(=O)N[C@@H](CCC(=O)O)C(=O)NCC(=O)N[C@@H](CCC(=O)O)C(=O)NCC(=O)NCC(=O)NCC(=O)N[C@@H](CCCCNC(=O)CC[C@H](NC(=O)CNC(=O)CC[C@H](NC(=O)CCCCCCCCCCCCCCCCC(=O)O)C(=O)O)C(=O)O)C(N)=O)[C@@H](C)O)NC(=O)[C@H](CCCNC(=N)N)NC(=O)[C@H](Cc2c[nH]cn2)NC(=O)[C@H](CCC(=O)O)NC(=O)CNC(=O)[C@H](Cc2c[nH]c3ccccc23)NC(=O)[C@H](CC(=O)O)NC(=O)[C@H](CCC(N)=O)NC(=O)[C@H](Cc2cn(C)c3ccccc23)NC1=O [Compound 130] (Ac-SEFCI[Trp(1-Me)]QDWGEHRCTEGEGGGK([γGlu-Gly-γGlu-C18 diacid])-NH2; disulfide 4-14)	< 100 nM		
CC[C@H](C)[C@H](NC(C)=O)C(=O)N[C@H]1CSSC[C@@H](C(=O)N[C@H](C(=O)N[C@@H](CCC(=O)O)C(N)=O)[C@@H](C)O)NC(=O)[C@H](CCCNC(=N)N)NC(=O)[C@H](Cc2c[nH]cn2)NC(=O)[C@H](CCC(=O)O)NC(=O)CNC(=O)[C@H](Cc2c[nH]c3ccccc23)NC(=O)[C@H](CC(=O)O)NC(=O)[C@H](CCC(N)=O)NC(=O)[C@H](Cc2c[nH]c3ccccc23)NC(=O)[C@H]([C@@H](C)CC)NC1=O [Compound 26] (Ac-ICIWQDWGEHRCTE-NH2; disulfide 2-12)	< 100 nM		
CC[C@H](C)[C@@H]1NC(=O)[C@@H](NC(=O)[C@H](Cc2ccccc2)NC(=O)[C@H](C)NC(=O)[C@H](CO)NC(=O)CNC(=O)[C@H](CCC(=O)O)NC(C)=O)CSSC[C@@H](C(=O)N[C@@H](CCC(=O)O)C(=O)NCC(=O)N[C@@H](CCC(=O)O)C(N)=O)NC(=O)[C@H](CCCNC(=N)N)NC(=O)[C@H](Cc2c[nH]cn2)NC(=O)[C@H](CCC(=O)O)NC(=O)CNC(=O)[C@H](Cc2c[nH]c3ccccc23)NC(=O)[C@H](CC(=O)O)NC(=O)[C@H](CCC(N)=O)NC(=O)[C@H](Cc2cn(C)c3ccccc23)NC1=O [Compound 58] (Ac-EGSAFCI[Trp(1-Me)]QDWGEHRCEGE-NH2; disulfide 6-16)	< 100 nM		
CC[C@H](C)[C@H](NC(C)=O)C(=O)N[C@H]1CSSC[C@@H](C(=O)N[C@H](C(N)=O)[C@@H](C)O)NC(=O)[C@H](CO)NC(=O)[C@H](Cc2c[nH]cn2)NC(=O)[C@H](C)NC(=O)CNC(=O)[C@H](Cc2c[nH]c3ccccc23)NC(=O)[C@H](CC(=O)O)NC(=O)[C@H](CCC(N)=O)NC(=O)[C@H](Cc2c[nH]c3ccccc23)NC(=O)[C@H]([C@@H](C)CC)NC1=O [Compound 19] (Ac-ICIWQDWGAHSCT-NH2; disulfide 2-12)	< 250 nM	140 nM	
CC[C@H](C)[C@H](NC(C)=O)C(=O)N[C@H]1CSSC[C@@H](C(=O)N[C@@H](CO)C(N)=O)NC(=O)[C@H](CCCNC(=N)N)NC(=O)[C@H](Cc2c[nH]cn2)NC(=O)[C@H](CCC(=O)O)NC(=O)CNC(=O)[C@H](Cc2c[nH]c3ccccc23)NC(=O)[C@H](CC(=O)O)NC(=O)[C@H](CCC(N)=O)NC(=O)[C@H](Cc2c[nH]c3ccccc23)NC(=O)[C@H](C(C)C)NC1=O [G, reference compound] (Ac-ICVWQDWGEHRCS-NH2; disulfide 2-12)		180 nM	
